{"source": "paper PMC6401105", "about": "“Dual role of the Anopheles coluzzii Venus Kinase Receptor in both larval growth and immunity” (Scientific Reports, 2019)", "key": {"[1]": {"molecular_target": "T1, Anopheles VKR (AgVKR; VKR^WT) (Anopheles gambiae, UniProt C5H7S1)", "T1 sequence (C5H7S1 26-1465)": "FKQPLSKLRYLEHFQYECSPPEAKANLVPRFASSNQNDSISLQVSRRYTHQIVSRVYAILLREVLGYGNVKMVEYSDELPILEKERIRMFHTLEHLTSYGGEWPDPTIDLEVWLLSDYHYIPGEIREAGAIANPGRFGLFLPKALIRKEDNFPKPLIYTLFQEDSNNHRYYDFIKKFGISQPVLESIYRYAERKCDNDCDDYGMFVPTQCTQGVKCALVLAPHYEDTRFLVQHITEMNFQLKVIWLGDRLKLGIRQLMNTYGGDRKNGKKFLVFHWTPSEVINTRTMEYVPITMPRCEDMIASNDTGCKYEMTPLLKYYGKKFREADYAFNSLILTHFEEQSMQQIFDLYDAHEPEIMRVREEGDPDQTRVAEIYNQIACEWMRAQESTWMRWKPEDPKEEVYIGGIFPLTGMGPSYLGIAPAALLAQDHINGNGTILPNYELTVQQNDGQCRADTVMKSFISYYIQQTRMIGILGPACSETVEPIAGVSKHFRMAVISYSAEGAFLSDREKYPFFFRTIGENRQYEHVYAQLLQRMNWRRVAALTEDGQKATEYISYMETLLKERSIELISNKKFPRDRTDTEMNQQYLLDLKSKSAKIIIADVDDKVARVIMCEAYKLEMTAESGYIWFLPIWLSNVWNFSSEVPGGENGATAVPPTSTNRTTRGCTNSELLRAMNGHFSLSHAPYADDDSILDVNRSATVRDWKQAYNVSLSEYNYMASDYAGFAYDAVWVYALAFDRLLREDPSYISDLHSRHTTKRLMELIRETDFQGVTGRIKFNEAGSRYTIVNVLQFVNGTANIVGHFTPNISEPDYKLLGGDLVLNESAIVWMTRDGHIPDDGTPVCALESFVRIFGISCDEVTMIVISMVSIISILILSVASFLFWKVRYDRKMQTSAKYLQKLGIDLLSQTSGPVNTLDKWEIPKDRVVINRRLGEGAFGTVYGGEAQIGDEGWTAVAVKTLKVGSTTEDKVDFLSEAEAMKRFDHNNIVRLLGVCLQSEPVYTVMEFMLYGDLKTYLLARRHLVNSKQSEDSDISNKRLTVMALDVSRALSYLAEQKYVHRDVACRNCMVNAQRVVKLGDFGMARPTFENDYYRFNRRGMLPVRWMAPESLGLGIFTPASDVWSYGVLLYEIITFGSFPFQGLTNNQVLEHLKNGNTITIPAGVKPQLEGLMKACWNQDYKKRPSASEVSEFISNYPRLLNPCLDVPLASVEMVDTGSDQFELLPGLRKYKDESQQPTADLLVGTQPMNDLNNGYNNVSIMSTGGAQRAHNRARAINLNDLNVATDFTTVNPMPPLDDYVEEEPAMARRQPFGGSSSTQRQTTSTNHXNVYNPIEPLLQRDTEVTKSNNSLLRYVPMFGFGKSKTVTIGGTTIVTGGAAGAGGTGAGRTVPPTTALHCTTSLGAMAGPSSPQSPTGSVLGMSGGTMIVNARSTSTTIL", "assay": "GVBD of Xenopus oocytes expressing VKR", "assay_type": "cell-based", "settings": "agonist; VFT domain; ND96 medium pH 7.4, 19 °C, 18 h; not an EC50"}, "[2]": {"molecular_target": "T1, Anopheles VKR (AgVKR; VKR^WT)", "assay": "GVBD of Xenopus oocytes expressing VKR; anti-phosphotyrosine Western blot", "assay_type": "cell-based", "settings": "agonist; VFT domain; ND96 medium pH 7.4, 19 °C, 18 h; not an EC50"}}}
{"smiles": "N[C@@H](CS)C(=O)O", "note": "[L-Cys]", "values": [{"measurement": "minimal concentration to induce GVBD", "setting": "[1]", "result": 1, "unit": "mM"}]}
{"smiles": "N=C(N)NCCC[C@H](N)C(=O)O", "note": "[L-Arg]", "values": [{"measurement": "minimal concentration to induce GVBD", "setting": "[2]", "result": 1, "unit": "µM"}]}
